PubChem BioAssay AID1259408 (Genetic Toxicology Data Bank (GENE-TOX), 2018)
Activity calls are given as the source filed them. The rule behind the calls is not given here.

Tested on: GENE-TOX genotoxicity assays, various organisms and cells
Assay: GENE-TOX mutagenicity studies
Conditions: for call: Assay Type: In vivo carcinogenicity studies
[1] = Species/Cell Type: Mammalian polychromatic erythrocytes, Assay Type: Micronucleus test, chromosome aberrations, Assay Code: MNTT, Evaluation Type: Evaluation B (Post-1980)
[2] = Species/Cell Type: Nonhuman, Assay Type: Sister-chromatid exchange (SCE) in vitro, Assay Code: SC2+, Evaluation Type: Evaluation B (Post-1980)
[3] = Species/Cell Type: Salmonella typhimurium (one or more of the five standard strains: TA98, TA100, TA1535, TA1537, and TA1538), Assay Type: Histidine reverse gene mutation, Ames assay, Assay Code: SAL+, Evaluation Type: Evaluation A (Pre-1980)
[4] = Species/Cell Type: Nonhuman, Assay Code: CCG+, Evaluation Type: Evaluation A (Pre-1980)
[5] = Species/Cell Type: Salmonella typhimurium (one or more of the five standard strains: TA98, TA100, TA1535, TA1537, and TA1538), Assay Type: Histidine reverse gene mutation, Ames assay, Assay Code: SAL-, Evaluation Type: Evaluation A (Pre-1980)
[6] = Species/Cell Type: Drosophila melanogaster, Assay Type: Sex-linked recessive lethal gene mutation, Assay Code: SRL+, Evaluation Type: Evaluation A (Pre-1980)
[7] = Species/Cell Type: Salmonella typhimurium (one or more of the five standard strains: TA98, TA100, TA1535, TA1537, and TA1538), Assay Type: Histidine reverse gene mutation, Ames assay, Assay Code: SAL+*, Activation: With metabolic activation, Evaluation Type: Evaluation A (Pre-1980)
[8] = Species/Cell Type: Saccharomyces cerevisiae, Assay Type: Reverse gene mutation, Assay Code: YERT, Evaluation Type: Evaluation A (Pre-1980)

Nc1nnc(/C(=C/c2ccc([N+](=O)[O-])o2)c2ccco2)o1
mutagenic call (Species/Cell Type: Human diploid fibroblasts, Assay Type: Unscheduled DNA synthesis (UDS) in vitro, DNA effects, Assay Code: UDH+, Evaluation Type: Evaluation A (Pre-1980)): active; positive

O=c1ccc2c(cc(O)c3c4ccccc4nnc23)o1
mutagenic call [1]: no conclusion

Nc1c2ccccc2nc2ccccc12
mutagenic call (Species/Cell Type: Human diploid fibroblasts, Assay Type: Unscheduled DNA synthesis (UDS) in vitro, DNA effects, Assay Code: UDH-, Evaluation Type: Evaluation A (Pre-1980)): inactive; negative
mutagenic call [2]: active; positive
mutagenic call [3]: active; positive

CNC(=O)ON=CC(C)(C)SC
mutagenic call (Species/Cell Type: Human lymphocytes, Assay Type: Sister-chromatid exchange (SCE) in vitro, Assay Code: SCL+D, Dose Response: With dose response, Evaluation Type: Evaluation B (Post-1980)): active; positive
mutagenic call (Species/Cell Type: Human, Assay Type: Sister-chromatid exchange (SCE) in vitro, Assay Code: SC1+D, Dose Response: With dose response, Evaluation Type: Evaluation B (Post-1980)): active; positive
call (Species/Cell Type: Nonhuman, Assay Code: CCG-, Evaluation Type: Evaluation A (Pre-1980)): inactive; negative

CCNNCC
call [4]: active; positive

COc1cc(S(=O)(=O)O)c(C)cc1N=Nc1c(O)ccc2cc(S(=O)(=O)O)ccc12
mutagenic call (Species/Cell Type: Drosophila melanogaster, Assay Type: Sex-linked recessive lethal gene mutation, Assay Code: SRL-, Evaluation Type: Evaluation A (Pre-1980)): inactive; negative
mutagenic call [5]: inactive; negative

CNc1ccc(O)cc1
mutagenic call (Species/Cell Type: Allium cepa, Assay Type: Chromosome aberrations, Assay Code: ALCT, Evaluation Type: Evaluation A (Pre-1980)): no conclusion
mutagenic call (Species/Cell Type: Neurospora crassa, Assay Type: Aneuploidy, chromosome aberrations, Assay Code: NEN-, Evaluation Type: Evaluation A (Pre-1980)): inactive; negative

O=C(O)CC(O)(CC(=O)O)C(=O)O
mutagenic call (Species/Cell Type: Mammalian polychromatic erythrocytes, Assay Type: Micronucleus test, chromosome aberrations, Assay Code: MNT+, Evaluation Type: Evaluation B (Post-1980)): active; positive

CN=NNc1ccccc1
mutagenic call (Species/Cell Type: Neurospora crassa, Assay Type: Forward gene mutation, Assay Code: NEF+, Evaluation Type: Evaluation A (Pre-1980)): active; positive

Cc1ccccc1S(N)(=O)=O
mutagenic call (Species/Cell Type: Drosophila melanogaster, Assay Type: Sex-linked recessive lethal gene mutation, Assay Code: SRLT, Evaluation Type: Evaluation A (Pre-1980)): no conclusion
mutagenic call [1]: no conclusion
mutagenic call [5]: inactive; negative

Cc1cc(N)c(N)cc1N
mutagenic call (Species/Cell Type: Salmonella typhimurium (one or more of the five standard strains: TA98, TA100, TA1535, TA1537, and TA1538), Assay Type: Histidine reverse gene mutation, Ames assay, Assay Code: SALT, Evaluation Type: Evaluation A (Pre-1980)): no conclusion

O=[Se](O)O
mutagenic call (Species/Cell Type: Bacillus subtilis (H17 vs M45), Assay Type: Rec-assay, spot test, DNA effects (bacterial DNA repair), Assay Code: REW+, Evaluation Type: Evaluation A (Pre-1980)): active; positive
mutagenic call (Species/Cell Type: Bacillus subtilis (H17 vs M45), Assay Type: Rec-assay, spot test, DNA effects (bacterial DNA repair), Assay Code: REW-, Evaluation Type: Evaluation A (Pre-1980)): inactive; negative
mutagenic call (Species/Cell Type: Human lymphocytes, Assay Type: Sister-chromatid exchange (SCE) in vitro, Assay Code: SCL+D, Dose Response: With dose response, Evaluation Type: Evaluation A (Pre-1980)): active; positive
mutagenic call (Species/Cell Type: Human lymphocytes, Assay Type: Sister-chromatid exchange (SCE) in vivo, Assay Code: SCY+, Evaluation Type: Evaluation B (Post-1980)): active; positive
mutagenic call (Species/Cell Type: Human, Assay Type: Sister-chromatid exchange (SCE) in vitro, Assay Code: SC1+D, Dose Response: With dose response, Evaluation Type: Evaluation A (Pre-1980)): active; positive
mutagenic call (Species/Cell Type: Nonhuman, Assay Type: Sister-chromatid exchange (SCE) in vitro, Assay Code: SC2+D, Dose Response: With dose response, Evaluation Type: Evaluation B (Post-1980)): active; positive
mutagenic call (Species/Cell Type: Nonhuman, Assay Type: Sister-chromatid exchange (SCE) in vivo, Assay Code: SC3+D, Dose Response: With dose response, Evaluation Type: Evaluation B (Post-1980)): active; positive
mutagenic call [3]: active; positive

C/C=C/C1=CN2C(=O)c3cc(O[C@@H]4O[C@@H](C)[C@H](NC)[C@@](C)(O)[C@H]4O)c(C)c(O)c3N[C@H](O)[C@@H]2C1
mutagenic call (Species/Cell Type: Mammalian polychromatic erythrocytes, Assay Type: Micronucleus test, chromosome aberrations, Assay Code: MNT+U, Dose Response: Unconfirmed positive response, Evaluation Type: Evaluation B (Post-1980)): active; positive

O[C@@H]1[C@@H](O)c2c(cc3ccc4cccc5ccc2c3c45)C2O[C@@H]21 (stereo partly specified)
mutagenic call [3]: active; positive

COc1ccc(N)cc1N
mutagenic call [6]: active; positive
mutagenic call (Species/Cell Type: Mammalian polychromatic erythrocytes, Assay Type: Micronucleus test, chromosome aberrations, Assay Code: MNTT, Evaluation Type: Evaluation A (Pre-1980)): no conclusion
mutagenic call (Species/Cell Type: Mouse, Sex: Male, Assay Type: Sperm morphology, Assay Code: SPI-, Evaluation Type: Evaluation A (Pre-1980)): inactive; negative
mutagenic call (Species/Cell Type: Neurospora crassa, Assay Type: Aneuploidy, chromosome aberrations, Assay Code: NEN+, Evaluation Type: Evaluation A (Pre-1980)): active; positive
call [4]: active; positive
mutagenic call (Species/Cell Type: Nonhuman, Assay Type: Sister-chromatid exchange (SCE) in vivo, Assay Code: SC3+, Evaluation Type: Evaluation B (Post-1980)): active; positive
mutagenic call (Species/Cell Type: Rodents, Sex: Male, Assay Type: Dominant lethal test, Assay Code: DLT-, Evaluation Type: Evaluation A (Pre-1980)): inactive; negative
mutagenic call [7]: active; positive

CCCCC/C=C\C/C=C\C/C=C\CCCCC(=O)O
mutagenic call [1]: no conclusion

Cc1ccc2c(ccc3cc4ccccc4cc32)c1
mutagenic call (Species/Cell Type: Nonhuman, Assay Type: Sister-chromatid exchange (SCE) in vitro, Assay Code: SC2-, Evaluation Type: Evaluation B (Post-1980)): inactive; negative
mutagenic call [7]: active; positive

Cc1ccc2ccc3c4ccccc4cc4ccc1c2c43
mutagenic call [6]: active; positive

O
mutagenic call (Species/Cell Type: Bacillus subtilis (H17 vs M45), Assay Type: Rec-assay, spot test, DNA effects (bacterial DNA repair), Assay Code: REWT, Evaluation Type: Evaluation A (Pre-1980)): no conclusion
mutagenic call (Species/Cell Type: Nonhuman, Assay Type: Sister-chromatid exchange (SCE) in vitro, Assay Code: SC2T, Evaluation Type: Evaluation B (Post-1980)): no conclusion
mutagenic call (Species/Cell Type: Syrian hamster embryo (SA7/SHE) cells, Assay Type: Cell transformation, viral enhanced, Assay Code: CT7-, Evaluation Type: Evaluation A (Pre-1980)): inactive; negative

O=NN1CCC(Cl)CC1
mutagenic call [6]: active; positive
mutagenic call [7]: active; positive

COc1ccc(C(=O)N2c3ccccc3Cc3ccccc32)cc1
mutagenic call (Species/Cell Type: Human, Sex: Male, Assay Type: Sperm morphology, Assay Code: SPH+, Evaluation Type: Evaluation A (Pre-1980)): active; positive

COc1ccc(/C=N\NC(=O)COc2ccc(Br)cc2CN2CCCCC2)cc1
mutagenic call [8]: no conclusion

N#Cc1cccc2c([N+](=O)[O-])cccc12
mutagenic call (Species/Cell Type: Bacillus subtilis (H17 vs M45T), Assay Type: Rec-assay, spot test, DNA effects (bacterial DNA repair), Assay Code: REXT, Evaluation Type: Evaluation A (Pre-1980)): no conclusion
mutagenic call (Species/Cell Type: Escherichia coli WP2, Assay Type: Tryptophan reverse gene mutation, Assay Code: WP2-, Evaluation Type: Evaluation A (Pre-1980)): inactive; negative
mutagenic call (Species/Cell Type: Escherichia coli WP2 UVRA, Assay Type: Tryptophan reverse gene mutation, Assay Code: WPU+, Evaluation Type: Evaluation A (Pre-1980)): active; positive
mutagenic call [2]: active; positive
mutagenic call [3]: active; positive

COCCOc1cnc(NS(=O)(=O)c2ccccc2)nc1
mutagenic call (Species/Cell Type: Nonhuman, Assay Type: Sister-chromatid exchange (SCE) in vivo, Assay Code: SC3T, Evaluation Type: Evaluation B (Post-1980)): no conclusion

C
mutagenic call [2]: active; positive

CCCCOC(=O)COc1cc(Cl)c(Cl)cc1Cl
mutagenic call (Species/Cell Type: Salmonella typhimurium, Serratia marcesens, Assay Type: Forward and reverse gene mutation, host-mediated assay, Assay Code: HM2T, Evaluation Type: Evaluation A (Pre-1980)): no conclusion

CC1CN(N=O)CC(C)N1N=O (stereo unspecified)
mutagenic call [7]: active; positive

CC(CN(C)C)CN1c2ccccc2CCc2ccccc21 (stereo unspecified)
mutagenic call (Species/Cell Type: Human, Sex: Male, Assay Type: Sperm morphology, Assay Code: SPHT, Evaluation Type: Evaluation A (Pre-1980)): no conclusion

CCOc1ccc(CC(=O)NN)cc1CN(CC)CC
mutagenic call [8]: no conclusion

O=C1c2ccccc2-c2ccc(Oc3ccc(S(=O)(=O)O)cc3)c3cccc1c23
mutagenic call [3]: active; positive

CN(C)Nc1nc(-c2ccc([N+](=O)[O-])o2)cs1
mutagenic call (Species/Cell Type: Escherichia coli WP2, Assay Type: Tryptophan reverse gene mutation, Assay Code: WP2+, Evaluation Type: Evaluation A (Pre-1980)): active; positive
mutagenic call (Species/Cell Type: Escherichia coli WP2 UVRA, Assay Type: Tryptophan reverse gene mutation, Assay Code: WPU-, Evaluation Type: Evaluation A (Pre-1980)): inactive; negative
mutagenic call [3]: active; positive

Cc1c2c(c(C)c3ccccc13)[C@H]1O[C@H]1c1ccccc1-2
mutagenic call [6]: active; positive
mutagenic call (Species/Cell Type: Mouse prostate cells, Assay Type: Cell transformation, Assay Code: CTM+D, Dose Response: With dose response, Evaluation Type: Evaluation A (Pre-1980)): active; positive
mutagenic call [3]: active; positive
